{
  "source": "patent US7585519B2",
  "about": "“Esters of L-carnitine or alkanoyl L-carnitines useful as cationic lipids for the intracellular delivery of pharmacologically active compounds” (Sigma-Tau Industrie Farmaceutiche Riunite S.p.A., priority 1999, dated 2009)",
  "key": {"M109 cells": {"tested_on": "M109 cells", "test": "In-vitro cytotoxicity test (sulforhodamine B, SRB)", "format": "cell-based, murine", "conditions": "for optical density reading at 540 nm (Mean): Table 2.3; for optical density reading at 540 nm (single reading): Table 2.3, listed as DMSO-CPT 83", "experimental": "The toxicity assays were done on HeLa and M109 cells in 96-well plates. On the day after plating, the cells were treated with the molecules being tested for the next 48 hours. The cells were then washed with PBS and left in normal growth conditions for 48 hours. After removal of the growth medium, the cells were incubated on ice with 16% TCA, washed 3 times in H2O, treated for 30 minutes with sulforhodamine B (SRB) in 1% acetic acid, washed 3 times in 1% acetic acid alone, incubated for 20 minutes in TRIS 10 mM pH 10.5 and, lastly, readings were taken at 540 nm. To evaluate the ability of the liposome to transport CPT 83 in vitro in M109 cells the sulforhodamine B test described above was used. In addition, the cytotoxicity of CPT 83 dissolved in dimethyl-sulphoxide (DMSO) was also evaluated as compared to that of the same molecule complexed with the ST 983 liposome. The liposome-CPT 83 complex was used in the cytotoxicity assays at the concentrations indicated in Tables 2.1, 2.2 and […] here below in both the SUV and MLV configurations. The liposome:CPT 83 molar ratio used was 40:1."}, "[1]": {"tested_on": "murine pulmonary carcinoma M109", "protocol": "To induce the tumour in vivo, unanaesthetised Balb/c mice received injections of 3×10^5 cells of murine pulmonary carcinoma M109 in 0.1 ml RPMI-1640 (Sigma) in the quadriceps femoris of the right rear paw.\nTaxol (paclitaxel INDENA) used as a control was dissolved in the cremophor vehicle EL (BASF) at a concentration of 20 mg/mL and stored at +4° C. for the next 24 hours, protected against the light. At the time of use, it was diluted with phosphate-buffered saline solution (PBS, SIGMA) and injected intravenously in the same volume and concentration conditions as described for taxol transported by the ST 983 liposome.\nThe cremophor was prepared by diluting 1:1 with ethyl alcohol.\nAdministrations were given for seven consecutive days starting from day 10 after inoculation of the tumour. The animals were kept under observation up to day 17 post-inoculation and sacrificed by cervical dislocation, and their lungs were removed for determination of the number of metastases. Staining of the lungs to detect metastases was done by incubating the lungs for 10 days in 5 ml of Bouin's solution, consisting of 71% saturated picric acid solution, 4.8% glacial acetic acid (Merck), and 24% 10% formaldehyde (Fluka). At the end of the incubation period in Bouin's solution, the numbers of metastases were counted.\nStatistical analysis of the data for the number of lung metastases was done using the Mann-Whitney non-parametric tests for unpaired data."}, "[2]": {"tested_on": "luciferase gene of pCMVluc plasmid in liver, lung and heart", "test": "In-vivo plasmid DNA transfection test (luciferase activity in tissues)", "parameters": "species or system Balb/c mice", "experimental": "In the in-vivo experiments, both DOTAP and [2,3-(dioleoyl)propyl]trimethylammonium (DOTMA) were used as reference cationic lipids.\nThe molar ratios defined in the results refer to nmol concentrations of the respective cationic lipids per […] of DNA.\nIn the in-vivo transfection experiments, 25 μg of plasmid DNA per animal were used.\nThe plasmid pCMVluc used in these experiments contained the cDNA of the luciferase gene under the transcriptional control of the cytomegalovirus (CMV) promoter.\nProtein luciferase activity in cells and tissues was determined using the Boehringer Mannheim kit (cat no. 1669 893).\nThe cells were washed 3 times in PBS and then removed from the plate with a scraper in lysis buffer (100 mM potassium phosphate pH 7.8. 1 mM dithiothreitol-DTT) and submitted to three consecutive cycles of freezing and thawing. After centrifuging in 1.5 mL Eppendorf tubes, the supernatant was used for the luminescence test not more than 5 hours after extraction of the proteins. Luminescence emission measurements were done using a luminometer at 562 nm. After a first freezing in liquid N2 followed by fine crushing to obtain a powder, the tissues were resuspended in lysis buffer and incubated for 10-15 min in ice.\nThe samples were then centrifuged in 2 ml Eppendorf tubes and the supernatant was tested for luciferase activity.\nBoth DOTAP and DOTMA were used as reference cationic lipids, the transfection capacity of which has been amply characterised and described by Abkenet et al., Proc. Natl. Acad. Sci. USA 1993, 90, 6518. In the in-vivo experiments, various different molar ratios of cationic lipids to plasmid DNA were analysed for the purposes of determining the activity of the cationic lipids and the respective most efficient concentrations for gene transfer. The transfection capability of the various liposomes was evaluated both in vitro and in vivo using the luciferase gene […] contained in the pCMVluc plasmid, the activity of which, in terms of relative luminescence units (RLU) (described previously) made for easy quantification.\nIn this experiment, the dependence of liver, lung and heart transfection efficiency on the ST 983 liposome:plasmid DNA molar ratio was evaluated. The following nmol ratios of liposome per μg DNA were tested: 12:1, 24:1, 36:1 and 48:1.\nGroups of 6 Balb/c mice weighing approximately 20 g were treated intravenously with the above-mentioned amounts of liposome-DNA complex in 200 μl volumes of PBS and were sacrificed 24 hours after administration of the complex."}, "[3]": {"tested_on": "luciferase gene of pCMVluc plasmid in liver, lung and heart", "test": "In-vivo plasmid DNA transfection test (luciferase activity in tissues)", "parameters": "species or system Balb/c mice", "conditions": "molar ratio 12:1"}, "HeLa cells": {"tested_on": "HeLa cells", "conditions": "liposome 9 μM, 2.5 μg plasmid DNA, versus DOTAP, FIGS. 1 and 2", "protocol": "Liposome and plasmid DNA were suitably diluted separately in PBS. The DNA was then added to the liposome and the liposome-DNA complex was left for approximately 30 min at 4° C. to facilitate the formation of a stable liposome-DNA interaction.\nIn the in-vitro experiments, 1,2-dioleoyloxy-3-trimethyl-ammonium propane (DOTAP) was used as a reference cationic lipid; 2.5 μg of plasmid DNA were used per 2×10^5 HeLa cells, and the liposome concentration was 9 μM.\n5 μg of the DNA extracted from the cells were preabsorbed on nylon filters (Boehringer) using the Biorad dot-blot appliance. The filters were then prehybridised for 4 hours at 65° C. with a solution containing 0.5 M of sodium pyrophosphate (NaPi), 1 mM EDTA, 7% SDS. […] The autoradiographic analysis was carried out with the aid of a phosphor imager which uses phosphor screens activated by beta-radiation which are read and quantified by means of a photomultiplier system in conjunction with an image analysis program. […]\nAs an alternative, the transfection efficiency of a number of cationic liposomes was evaluated by means of densitometric analysis (phosphor imager) of samples of DNA extracted from transfected cells preabsorbed on nitrocellulose filters (dot-blot) and hybridised with ^32P-labelled plasmid DNA markers, as described previously."}, "[4]": {"conditions": "ST 983:DNA molar ratio 24:1, i.v., 24 hours"}, "[5]": {"conditions": "ST 983:DNA molar ratio 36:1, i.v., 24 hours"}, "[6]": {"conditions": "ST 983:DNA molar ratio 48:1, i.v., 24 hours"}, "[7]": {"conditions": "liposome:DNA molar ratio 12:1, i.v., 24 hours"}, "[8]": {"conditions": "liposome/DNA preincubation time 30 min."}, "[9]": {"conditions": "liposome/DNA preincubation time 3 h"}},
  "note": "Values joined by “and” are separate entries in the source; they are usually repeats but may differ in a detail not shown here. Identical values can stand only once.",
  "data": [
    {"compound": "CC[C@@]1(O)C(=O)OCc2c1cc1n(c2=O)Cc2c-1nc1ccccc1c2C#N", "note": "[CPT 83, 7-carbonitrile camptothecin]", "values": [
      {"measurement": "optical density reading at 540 nm (Mean)", "setting": "M109 cells; 0.0013 μM", "result": 0.8399},
      {"measurement": "optical density reading at 540 nm (single reading)", "setting": "M109 cells; 0.0013 μM", "result": "0.863 and 0.795 and 0.831 and 0.878 and 0.809 and 0.816 and 0.886 and 0.841"},
      {"measurement": "optical density reading at 540 nm (Mean)", "setting": "M109 cells; 0.013 μM", "result": 0.82},
      {"measurement": "optical density reading at 540 nm (single reading)", "setting": "M109 cells; 0.013 μM", "result": "0.851 and 0.79 and 0.806 and 0.81 and 0.8 and 0.804 and 0.863 and 0.836"},
      {"measurement": "optical density reading at 540 nm (Mean)", "setting": "M109 cells; 0.13 μM", "result": 0.4446},
      {"measurement": "optical density reading at 540 nm (single reading)", "setting": "M109 cells; 0.13 μM", "result": "0.474 and 0.467 and 0.429 and 0.421 and 0.406 and 0.407 and 0.57 and 0.383"},
      {"measurement": "optical density reading at 540 nm (Mean)", "setting": "M109 cells; 1.3 μM", "result": 0.309},
      {"measurement": "optical density reading at 540 nm (single reading)", "setting": "M109 cells; 1.3 μM", "result": "0.318 and 0.317 and 0.328 and 0.305 and 0.33 and 0.302 and 0.285 and 0.287"},
      {"measurement": "optical density reading at 540 nm (Mean)", "setting": "M109 cells; 13 μM", "result": 0.2921},
      {"measurement": "optical density reading at 540 nm (single reading)", "setting": "M109 cells; 13 μM", "result": "0.285 and 0.288 and 0.312 and 0.318 and 0.281 and 0.267 and 0.3 and 0.286"}
    ]},
    {"compound": "CC(=O)O[C@H]1C(=O)[C@@]2(C)[C@H]([C@H](OC(=O)c3ccccc3)[C@]3(O)C[C@H](OC(=O)[C@H](O)[C@@H](NC(=O)c4ccccc4)c4ccccc4)C(C)=C1C3(C)C)[C@]1(OC(C)=O)CO[C@@H]1C[C@@H]2O", "note": "[Taxol, paclitaxel]", "values": [
      {"measurement": "effect on pulmonary metastases compared to untreated control mice", "setting": "[1]; M109, Balb/c mice, i.v.", "result": "no reducing effect on the number of pulmonary metastases"},
      {"measurement": "metastases size", "setting": "[1]; lung metastases at 17th day after M109 inoculation, BALB/c mice", "result": "S (S = small (<1 mm diameter))"},
      {"measurement": "metastases Mean ± s.d", "setting": "[1]; lung metastases at 17th day after M109 inoculation, BALB/c mice, i.v. for seven consecutive days from day 10", "result": "22 ± 9"}
    ]},
    {"compound": "CCCCCCCCCCCCCCCC(=O)O[C@H](CC(=O)OCCCCCCCCCCC)C[N+](C)(C)C.[Cl-]", "note": "[ST 983, palmitoyl L-carnitine chloride undecyl ester]", "values": [
      {"measurement": "Mean RLU/mg protein ± s.d. Lung", "setting": "[2]; [4]", "result": "2257856 +/− 280480 RLU/mg protein"},
      {"measurement": "Mean RLU/mg protein ± s.d. heart", "setting": "[2]; [4]", "result": "7091 +/− 249 RLU/mg protein"},
      {"measurement": "Mean RLU/mg protein ± s.d. liver", "setting": "[2]; [4]", "result": "1310 +/− 385 RLU/mg protein"},
      {"measurement": "Mean RLU/mg protein ± s.d. Lung", "setting": "[2]; [5]", "result": "301107 +/− 21503 RLU/mg protein"},
      {"measurement": "Mean RLU/mg protein ± s.d. heart", "setting": "[2]; [5]", "result": "8351 +/− 477 RLU/mg protein"},
      {"measurement": "Mean RLU/mg protein ± s.d. liver", "setting": "[2]; [5]", "result": "1035 +/− 347 RLU/mg protein"},
      {"measurement": "Mean RLU/mg protein ± s.d. Lung", "setting": "[2]; [6]", "result": "112747 +/− 5655 RLU/mg protein"},
      {"measurement": "Mean RLU/mg protein ± s.d. heart", "setting": "[2]; [6]", "result": "5251 +/− 489 RLU/mg protein"},
      {"measurement": "Mean RLU/mg protein ± s.d. liver", "setting": "[2]; [6]", "result": "1571 +/− 156 RLU/mg protein"},
      {"measurement": "share of the total luciferase extracted from lung, heart and liver located in the lungs", "setting": "[2]; all molar ratios analysed", "result": "approximately 99%"},
      {"measurement": "Mean RLU/mg protein ± s.d. Lung", "setting": "[2]; liposome/DNA preincubation time 30 min., molar ratio 12:1", "result": "874882 +/− 65917 RLU/mg protein"},
      {"measurement": "Mean RLU/mg protein ± s.d. liver", "setting": "[2]; liposome/DNA preincubation time 3 h, molar ratio 12:1", "result": "2497 +/− 682 RLU/mg protein"},
      {"measurement": "Mean RLU/mg protein ± s.d. Lung", "setting": "[2]; [7]", "result": "8818442 +/− 449529 RLU/mg protein"},
      {"measurement": "Mean RLU/mg protein ± s.d. heart", "setting": "[2]; [7]", "result": "28875 +/− 2593 RLU/mg protein"},
      {"measurement": "Mean RLU/mg protein ± s.d. liver", "setting": "[2]; [7]", "result": "2589 +/− 140 RLU/mg protein"},
      {"measurement": "in-vivo plasmid DNA transport efficiency compared with DOTMA", "setting": "[2]; lung, molar ratio 12:1", "result": "efficiency ratings higher than and/or comparable to those of DOTMA"},
      {"measurement": "increase in luciferase activity in the lung and heart, 3 hours versus 30 minutes preincubation", "setting": "[2]; molar ratio 12:1", "result": "approximately 5 fold"},
      {"measurement": "Mean RLU/mg protein ± s.d. heart", "setting": "[3]; [8]", "result": "8118 +/− 263 RLU/mg protein"},
      {"measurement": "Mean RLU/mg protein ± s.d. liver", "setting": "[3]; [8]", "result": "3526 +/− 260 RLU/mg protein"},
      {"measurement": "Mean RLU/mg protein ± s.d. Lung", "setting": "[3]; [9]", "result": "4225656 +/− 211731 RLU/mg protein"},
      {"measurement": "Mean RLU/mg protein ± s.d. heart", "setting": "[3]; [9]", "result": "37100 +/− 1853 RLU/mg protein"}
    ]},
    {"compound": "ester of propionyl L-carnitine bromide with 2-hydroxy acetyl 1,3 dipalmitoyl glycerol [ST 772]", "values": [
      {"measurement": "amounts of plasmid DNA in transfected cells (blot analysis)", "setting": "HeLa cells", "result": "same order of magnitude as obtained with DOTAP"}
    ]}
  ]
}
